# Source: the supplement of paper PMC13386468
# Assays:
# Assay in all cases: IC50 for competition of protein binding to Kinobeads
# Settings in all cases: assay detail: Kinobeads competition in P. falciparum blood-stage lysate
# [1] = molecular target: UniProt C0H4V6
# [2] = molecular target: UniProt C0H571
# [3] = molecular target: UniProt C0H5J5
# [4] = molecular target: UniProt C6KSQ1
# [5] = molecular target: UniProt O77328
# [6] = molecular target: UniProt O77375
# [7] = molecular target: UniProt O77381
# [8] = molecular target: UniProt O96220
# [9] = molecular target: UniProt O96221
# [10] = molecular target: UniProt P61076
# [11] = molecular target: UniProt Q76NN8
# [12] = molecular target: UniProt Q7KQK3
# [13] = molecular target: UniProt Q7KQK6
# [14] = molecular target: UniProt Q8I0P6
# [15] = molecular target: UniProt Q8I1S0
# [16] = molecular target: UniProt Q8I323
# [17] = molecular target: UniProt Q8I353
# [18] = molecular target: UniProt Q8I374
# [19] = molecular target: UniProt Q8I3F0
# [20] = molecular target: UniProt Q8I3R0
# [21] = molecular target: UniProt Q8I3X2
# [22] = molecular target: UniProt Q8I5B6
# [23] = molecular target: UniProt Q8I5C5
# [24] = molecular target: UniProt Q8I5D5
# [25] = molecular target: UniProt Q8I5Y3
# [26] = molecular target: UniProt Q8IAW0
# [27] = molecular target: UniProt Q8IAY9
# [28] = molecular target: UniProt Q8IBS3
# [29] = molecular target: UniProt Q8IDB7
# [30] = molecular target: UniProt Q8IDZ8
# [31] = molecular target: UniProt Q8IE09
# [32] = molecular target: UniProt Q8IE22
# [33] = molecular target: UniProt Q8IE76
# [34] = molecular target: UniProt Q8IHU0
# [35] = molecular target: UniProt Q8II11
# [36] = molecular target: UniProt Q8II22
# [37] = molecular target: UniProt Q8IIL7
# [38] = molecular target: UniProt Q8IJ34
# [39] = molecular target: UniProt Q8IJN9
# [40] = molecular target: UniProt Q8IJP3
# [41] = molecular target: UniProt Q8IJZ9
# [42] = molecular target: UniProt Q8IK12
# [43] = molecular target: UniProt Q8IKF6
# [44] = molecular target: UniProt Q8IL48
# [45] = molecular target: UniProt Q8IL86
# [46] = molecular target: UniProt Q8ILA4
# [47] = molecular target: UniProt Q8ILI6
# [48] = molecular target: UniProt Q8ILK1
# [49] = molecular target: UniProt Q8ILR7
# [50] = molecular target: UniProt Q8IM23
# [51] = molecular target: UniProt Q9TY98
# 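Note: native unpurified kinases from lysate captured on beads bearing immobilized kinase inhibitors, with bead-bound kinases quantified by mass spectrometry across compound doses.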
# Sequence of UniProt P61076 (P61076 whole entry): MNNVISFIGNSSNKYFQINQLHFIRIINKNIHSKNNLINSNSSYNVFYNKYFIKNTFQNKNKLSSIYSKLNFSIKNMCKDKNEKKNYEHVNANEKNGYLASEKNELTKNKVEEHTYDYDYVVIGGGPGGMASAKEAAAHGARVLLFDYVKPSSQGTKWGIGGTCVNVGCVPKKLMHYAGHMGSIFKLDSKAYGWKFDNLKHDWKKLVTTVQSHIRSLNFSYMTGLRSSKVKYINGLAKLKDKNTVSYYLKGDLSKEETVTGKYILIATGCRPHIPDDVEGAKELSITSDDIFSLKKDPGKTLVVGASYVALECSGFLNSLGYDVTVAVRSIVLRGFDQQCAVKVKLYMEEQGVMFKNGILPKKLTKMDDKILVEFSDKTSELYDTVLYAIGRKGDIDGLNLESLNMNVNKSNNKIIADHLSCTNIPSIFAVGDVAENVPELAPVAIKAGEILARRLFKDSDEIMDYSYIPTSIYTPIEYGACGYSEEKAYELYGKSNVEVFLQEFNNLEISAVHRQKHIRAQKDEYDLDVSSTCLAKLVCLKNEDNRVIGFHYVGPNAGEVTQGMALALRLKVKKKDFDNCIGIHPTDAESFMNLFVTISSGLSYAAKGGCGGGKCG
# Sequence of UniProt Q8ILI6 (Q8ILI6 whole entry): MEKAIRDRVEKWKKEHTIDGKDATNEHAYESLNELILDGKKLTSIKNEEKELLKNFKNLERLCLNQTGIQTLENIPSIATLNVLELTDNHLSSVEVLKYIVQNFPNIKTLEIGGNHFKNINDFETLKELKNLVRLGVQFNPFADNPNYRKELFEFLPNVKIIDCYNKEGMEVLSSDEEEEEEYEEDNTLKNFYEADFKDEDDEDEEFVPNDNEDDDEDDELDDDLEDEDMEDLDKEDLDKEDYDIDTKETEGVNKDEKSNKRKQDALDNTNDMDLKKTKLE
# Sequence of UniProt C0H4V6 (C0H4V6 whole entry): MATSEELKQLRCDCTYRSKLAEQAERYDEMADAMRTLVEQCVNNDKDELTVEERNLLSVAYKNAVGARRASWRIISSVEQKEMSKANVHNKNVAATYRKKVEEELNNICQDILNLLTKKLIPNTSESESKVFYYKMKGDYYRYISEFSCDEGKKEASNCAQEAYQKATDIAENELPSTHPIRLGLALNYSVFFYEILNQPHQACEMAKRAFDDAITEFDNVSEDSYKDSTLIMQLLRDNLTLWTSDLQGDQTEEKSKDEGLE
# Sequence of UniProt C0H571 (C0H571 whole entry): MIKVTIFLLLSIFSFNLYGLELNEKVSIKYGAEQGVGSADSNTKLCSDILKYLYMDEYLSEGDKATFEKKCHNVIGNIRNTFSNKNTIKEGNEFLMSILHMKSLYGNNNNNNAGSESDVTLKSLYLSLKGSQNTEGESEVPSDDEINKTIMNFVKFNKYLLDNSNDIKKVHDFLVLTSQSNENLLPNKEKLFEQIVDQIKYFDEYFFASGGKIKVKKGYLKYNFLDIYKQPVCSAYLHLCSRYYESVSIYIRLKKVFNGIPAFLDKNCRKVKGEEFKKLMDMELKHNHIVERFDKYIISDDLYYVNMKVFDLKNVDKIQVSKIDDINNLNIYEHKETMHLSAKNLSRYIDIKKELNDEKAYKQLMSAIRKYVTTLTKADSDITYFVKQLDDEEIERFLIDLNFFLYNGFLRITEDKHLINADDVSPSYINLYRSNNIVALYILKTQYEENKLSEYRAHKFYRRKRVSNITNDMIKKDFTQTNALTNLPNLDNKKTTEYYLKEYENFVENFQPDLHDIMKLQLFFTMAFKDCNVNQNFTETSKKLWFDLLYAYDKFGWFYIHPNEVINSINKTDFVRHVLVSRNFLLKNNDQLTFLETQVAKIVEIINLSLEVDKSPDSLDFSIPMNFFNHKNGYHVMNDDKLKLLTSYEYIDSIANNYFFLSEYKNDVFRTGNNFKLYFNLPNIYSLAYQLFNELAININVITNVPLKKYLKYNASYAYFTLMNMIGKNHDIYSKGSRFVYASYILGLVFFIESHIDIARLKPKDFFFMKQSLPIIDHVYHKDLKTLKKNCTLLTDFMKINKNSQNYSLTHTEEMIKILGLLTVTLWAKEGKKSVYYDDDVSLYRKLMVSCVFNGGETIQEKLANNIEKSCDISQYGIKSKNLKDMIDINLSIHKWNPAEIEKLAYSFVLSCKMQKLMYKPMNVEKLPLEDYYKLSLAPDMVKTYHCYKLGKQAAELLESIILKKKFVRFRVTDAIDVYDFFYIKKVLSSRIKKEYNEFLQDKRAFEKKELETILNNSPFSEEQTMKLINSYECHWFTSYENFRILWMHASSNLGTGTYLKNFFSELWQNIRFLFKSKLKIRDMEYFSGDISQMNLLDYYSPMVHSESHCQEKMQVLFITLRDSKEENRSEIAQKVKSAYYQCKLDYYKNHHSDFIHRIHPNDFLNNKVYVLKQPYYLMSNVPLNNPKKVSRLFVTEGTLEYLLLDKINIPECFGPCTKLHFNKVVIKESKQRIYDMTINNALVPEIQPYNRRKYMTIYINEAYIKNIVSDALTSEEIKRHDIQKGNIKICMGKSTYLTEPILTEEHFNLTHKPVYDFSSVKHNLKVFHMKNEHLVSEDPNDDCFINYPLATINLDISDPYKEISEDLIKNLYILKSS
compound,measurement,setting,value
O=c1[nH]c2ccc(Cl)cc2c(NC2CN3CCC2CC3)c1-c1nc2ccccc2[nH]1 (stereo unspecified) [CHIR-124],IC50,[1],> 20 µM
same,IC50,[2],> 20 µM
same,IC50,[3],> 20 µM
same,IC50,[4],0.299 µM
same,IC50,[5],> 20 µM
same,IC50,[6],> 20 µM
same,IC50,[7],> 20 µM
same,IC50,[8],> 20 µM
same,IC50,[9],> 20 µM
same,IC50,[10],> 20 µM
same,IC50,[11],> 20 µM
same,IC50,[12],> 20 µM
same,IC50,[13],> 20 µM
same,IC50,[14],> 20 µM
same,IC50,[15],> 20 µM
same,IC50,[16],> 20 µM
same,IC50,[17],> 20 µM
same,IC50,[18],> 20 µM
same,IC50,[19],> 20 µM
same,IC50,[20],> 20 µM
same,IC50,[21],> 20 µM
same,IC50,[22],> 20 µM
same,IC50,[23],> 20 µM
same,IC50,[24],> 20 µM
same,IC50,[25],> 20 µM
same,IC50,[26],> 20 µM
same,IC50,[27],> 20 µM
same,IC50,[28],> 20 µM
same,IC50,[29],> 20 µM
same,IC50,[30],> 20 µM
same,IC50,[31],> 20 µM
same,IC50,[32],> 20 µM
same,IC50,[33],> 20 µM
same,IC50,[34],> 20 µM
same,IC50,[35],< 0.0823 µM
same,IC50,[36],> 20 µM
same,IC50,[37],> 20 µM
same,IC50,[38],> 20 µM
same,IC50,[39],> 20 µM
same,IC50,[40],> 20 µM
same,IC50,[41],> 20 µM
same,IC50,[42],> 20 µM
same,IC50,[43],> 20 µM
same,IC50,[44],> 20 µM
same,IC50,[45],> 20 µM
same,IC50,[46],> 20 µM
same,IC50,[47],> 20 µM
same,IC50,[48],> 20 µM
same,IC50,[49],> 20 µM
same,IC50,[50],> 20 µM
same,IC50,[51],> 20 µM
